# Where a SMILES comes first, the peptide text is derived from it. [ ]: non-standard residue; d: D form. ξ: configuration not given here. ξαMeBip(2'-Et,4'-OMe) = CCc1cc(OC)ccc1-c1ccc(CC(C)(N)C(=O)O)cc1; ξBip(2'-Et-4'-OMe) = CCc1cc(OC)ccc1-c1ccc(CC(N)C(=O)O)cc1; ξαMePhe(2,6-F2) = CC(N)(Cc1c(F)cccc1F)C(=O)O; ξαMe(hhPhe) = CC(N)(CCCc1ccccc1)C(=O)O; ξαMePhe(2-F) = CC(N)(Cc1ccccc1F)C(=O)O; ξhhPhe = NC(CCCc1ccccc1)C(=O)O; ξαMeD = CC(N)(CC(=O)O)C(=O)O; ξαMeP = CC1(C(=O)O)CCCN1; ξαMeS = CC(N)(CO)C(=O)O; Aib = CC(C)(N)C(=O)O
# Tested on: RIN5F (Rat Insulinoma) cells
# Experiment: In vitro glucose-dependent insulin secretion (RIN5F cell assay)
# Assay type: cell-based
# Settings: 16.7-mM glucose load, n = 3, mean ± S.D.
# Procedure: RIN5F (Rat Insulinoma) cells were cultured in RPMI 1640 medium supplemented with sodium pyruvate (1 mM) HEPES and Glucose (4.5 g/L) in a humidified incubator (5% CO2), at 37° C. After trypsinization, RIN5F cells were seeded at a concentration of 0.2×10^6 cells per well, in 12 well plates. The cells were grown overnight to 80% confluence and insulin secretion experiments were performed as follows (Montrose-Rafizadeh C., et al., Mol. Cell. Endo. 1997, 130, 109.; Wang, X., et al., Endocrinology 2001, 5, 1820).
# The cells were washed once with PBS solution followed by 40 min. incubation in fresh Krebs-Ringer Balanced Buffer containing NaCl (115 mmol/L), KCl (4.7 mmol/L), CaCl2 (1.28 mmol/L), MgSO4.7H2O (1.2 mmol/L), KH2PO4 (1.2 mmol/L), NaHCO3 (10 mmol/L) and HEPES (25 mmol/L), containing Glucose (1.1 mM) and B.S.A (0.5%), pH 7.4. The buffer was replaced after 40 min. and the cells were incubated (37° C.) with the test peptidomimetics, at different concentration, for 30 min., both in the presence (16.7 mM) and absence (0 mM) of glucose load. The supernatant was collected and the insulin amount was measured by ultra sensitive Rat insulin ELISA kit (Crystal Chem, IL). The protein was estimated in the supernatant using Bicinchoninic Acid kit, according to the manufacturer's protocol (Sigma Aldrich, MO). The total insulin content obtained in Pico-gram (pg) was divided with the total protein (μg) in order to normalize for differences in cell density between wells.
SMILES,Insulin secretion (0.1 nM test compd.) [pg/µg/h],Insulin secretion (1 nM test compd.) [pg/µg/h],Insulin secretion (10 nM test compd.) [pg/µg/h]
"CCc1cc(OC)ccc1-c1ccc(CC(NC(=O)[C@H](CC(=O)O)NC(=O)[C@H](CO)NC(=O)[C@@H](NC(=O)C(C)(Cc2c(F)cccc2F)NC(=O)[C@@H](NC(=O)CNC(=O)[C@H](CCC(=O)O)NC(=O)[C@H](CO)NC(=O)[C@H](Cc2c[nH]cn2)NC(=O)[C@@H](N)C(C)C)[C@@H](C)O)[C@@H](C)O)C(=O)NC(C)(CCCc2ccccc2)C(N)=O)cc1 (stereo partly drawn) [compound 103] (H-VHSEGT[ξαMePhe(2,6-F2)]TSD[ξBip(2'-Et-4'-OMe)][ξαMe(hhPhe)]-NH2)",12.3 ± 0.33,14.1 ± 0.36,28.0 ± 0.16
CCc1cc(OC)ccc1-c1ccc(CC(NC(=O)C(C)(CC(=O)O)NC(=O)C(C)(CO)NC(=O)[C@@H](NC(=O)C(C)(Cc2ccccc2F)NC(=O)[C@@H](NC(=O)CNC(=O)[C@H](CCC(=O)O)NC(=O)[C@H](CO)NC(=O)[C@H](Cc2c[nH]cn2)NC(=O)[C@@H](N)C(C)C)[C@@H](C)O)[C@@H](C)O)C(=O)NC(C)(CCCc2ccccc2)C(N)=O)cc1 (stereo partly drawn) [compound 119] (H-VHSEGT[ξαMePhe(2-F)]T[ξαMeS][ξαMeD][ξBip(2'-Et-4'-OMe)][ξαMe(hhPhe)]-NH2),12.4 ± 0.22,15.2 ± 0.32,29.6 ± 0.50
"CCc1cc(OC)ccc1-c1ccc(CC(NC(=O)C(C)(CC(=O)O)NC(=O)C(C)(CO)NC(=O)[C@@H](NC(=O)C(C)(Cc2c(F)cccc2F)NC(=O)[C@@H](NC(=O)CNC(=O)[C@H](CCC(N)=O)NC(=O)C2(C)CCCN2C(=O)[C@H](Cc2c[nH]cn2)NC(=O)[C@@H](N)C(C)C)[C@@H](C)O)[C@@H](C)O)C(=O)NC(C)(CCCc2ccccc2)C(N)=O)cc1 (stereo partly drawn) [compound 126] (H-VH[ξαMeP]QGT[ξαMePhe(2,6-F2)]T[ξαMeS][ξαMeD][ξBip(2'-Et-4'-OMe)][ξαMe(hhPhe)]-NH2)",16.6 ± 0.41,22.9 ± 0.32,36.6 ± 0.19
"CCc1cc(OC)ccc1-c1ccc(CC(NC(=O)C(C)(CC(=O)O)NC(=O)C(C)(CO)NC(=O)[C@@H](NC(=O)C(C)(Cc2c(F)cccc2F)NC(=O)[C@@H](NC(=O)CNC(=O)[C@H](CCC(=O)O)NC(=O)C2(C)CCCN2C(=O)[C@H](Cc2c[nH]cn2)NC(=O)[C@@H](N)C(C)C)[C@@H](C)O)[C@@H](C)O)C(=O)NC(C)(CCCc2ccccc2)C(N)=O)cc1 (stereo partly drawn) [compound 130] (H-VH[ξαMeP]EGT[ξαMePhe(2,6-F2)]T[ξαMeS][ξαMeD][ξBip(2'-Et-4'-OMe)][ξαMe(hhPhe)]-NH2)",15.6 ± 0.33,21.8 ± 0.16,35.6 ± 0.26
"CCc1cc(OC)ccc1-c1ccc(CC(C)(NC(=O)[C@H](CC(=O)O)NC(=O)C(C)(CO)NC(=O)[C@@H](NC(=O)[C@H](Cc2ccccc2)NC(=O)[C@@H](NC(=O)CNC(=O)[C@H](CCC(N)=O)NC(=O)C2(C)CCCN2C(=O)[C@H](Cc2c[nH]cn2)NC(=O)[C@@H](N)C(C)C)[C@@H](C)O)[C@@H](C)O)C(=O)NC(C)(CCCc2ccccc2)C(N)=O)cc1 (stereo partly drawn) [compound 160] (H-VH[ξαMeP]QGTFT[ξαMeS]D[ξαMeBip(2'-Et,4'-OMe)][ξαMe(hhPhe)]-NH2)",16.8 ± 0.20,22.7 ± 0.29,36.6 ± 0.31
"CCc1cc(OC)ccc1-c1ccc(CC(C)(NC(=O)[C@H](CC(=O)O)NC(=O)C(C)(CO)NC(=O)[C@@H](NC(=O)C(C)(Cc2ccccc2F)NC(=O)[C@@H](NC(=O)CNC(=O)[C@H](CCC(N)=O)NC(=O)C2(C)CCCN2C(=O)[C@H](Cc2c[nH]cn2)NC(=O)[C@@H](N)C(C)C)[C@@H](C)O)[C@@H](C)O)C(=O)NC(C)(CCCc2ccccc2)C(N)=O)cc1 (stereo partly drawn) [compound 168] (H-VH[ξαMeP]QGT[ξαMePhe(2-F)]T[ξαMeS]D[ξαMeBip(2'-Et,4'-OMe)][ξαMe(hhPhe)]-NH2)",11.9 ± 0.17,14.2 ± 0.13,27.6 ± 0.16
"CCc1cc(OC)ccc1-c1ccc(CC(C)(NC(=O)[C@H](CC(=O)O)NC(=O)C(C)(CO)NC(=O)[C@@H](NC(=O)C(C)(Cc2c(F)cccc2F)NC(=O)[C@@H](NC(=O)CNC(=O)[C@H](CCC(N)=O)NC(=O)C(C)(C)NC(=O)[C@H](Cc2c[nH]cn2)NC(=O)[C@@H](N)C(C)C)[C@@H](C)O)[C@@H](C)O)C(=O)NC(C)(CCCc2ccccc2)C(N)=O)cc1 (stereo partly drawn) [compound 175] (H-VH[Aib]QGT[ξαMePhe(2,6-F2)]T[ξαMeS]D[ξαMeBip(2'-Et,4'-OMe)][ξαMe(hhPhe)]-NH2)",12.4 ± 0.22,15.2 ± 0.32,29.6 ± 0.50
"CCc1cc(OC)ccc1-c1ccc(CC(C)(NC(=O)C(C)(CC(=O)O)NC(=O)[C@H](CO)NC(=O)[C@@H](NC(=O)[C@H](Cc2ccccc2)NC(=O)[C@@H](NC(=O)CNC(=O)[C@H](CCC(N)=O)NC(=O)[C@H](C)NC(=O)[C@H](Cc2c[nH]cn2)NC(=O)[C@@H](N)C(C)C)[C@@H](C)O)[C@@H](C)O)C(=O)NC(C)(CCCc2ccccc2)C(N)=O)cc1 (stereo partly drawn) [compound 182] (H-VHAQGTFTS[ξαMeD][ξαMeBip(2'-Et,4'-OMe)][ξαMe(hhPhe)]-NH2)",13.1 ± 0.11,14.9 ± 0.17,28.8 ± 0.44
"CCc1cc(OC)ccc1-c1ccc(CC(C)(NC(=O)[C@H](CC(=O)O)NC(=O)[C@H](CO)NC(=O)[C@@H](NC(=O)[C@H](Cc2ccccc2)NC(=O)[C@@H](NC(=O)CNC(=O)[C@H](CCC(=O)O)NC(=O)[C@H](C)NC(=O)[C@H](Cc2c[nH]cn2)NC(=O)[C@@H](NC(=O)[C@@H](N)C(C)C)C(C)C)[C@@H](C)O)[C@@H](C)O)C(=O)NC(CCCc2ccccc2)C(N)=O)cc1 (stereo partly drawn) [compound 210] (H-VVHAEGTFTSD[ξαMeBip(2'-Et,4'-OMe)][ξhhPhe]-NH2)",16.3 ± 0.15,22.4 ± 0.21,36.2 ± 0.11

# Reference: patent US20120264685A1 (priority 2009, published 2012)
